Results reported in the supplement of paper PMC11451515.

System: P12-Ichikawa
Experiment: cell viability relative to DMSO control; higher = less cytotoxic
Conditions: 48 h
Procedure, shortened: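 Three leukemia lines were tested: NOMO1 and SEM at 500 cells/well and P12-Ichikawa at 1000 cells/well. Each was adapted for at least four passages in each medium and seeded in 5 μl in 1536-well plates, and library compounds in DMSO were pin-dosed from 47 μM to 0.79 nM in 11 threefold steps. After 48 h at 37°C, CellTiter-Glo One luminescence was read. Viability is a percentage relative to DMSO wells on each plate, with cell-free wells as background.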

[1] = HPLM + 10% dialyzed FBS, 0.000781 µM
[2] = HPLM + 10% dialyzed FBS, 0.00234 µM
[3] = HPLM + 10% dialyzed FBS, 0.00702 µM
[4] = HPLM + 10% dialyzed FBS, 0.0211 µM
[5] = HPLM + 10% dialyzed FBS, 0.0632 µM
[6] = HPLM + 10% dialyzed FBS, 0.19 µM
[7] = HPLM + 10% dialyzed FBS, 0.569 µM
[8] = HPLM + 10% dialyzed FBS, 1.71 µM
[9] = HPLM + 10% dialyzed FBS, 5.12 µM
[10] = HPLM + 10% dialyzed FBS, 15.4 µM
[11] = HPLM + 10% dialyzed FBS, 46.1 µM
[12] = RPMI 5 mM glucose + 10% FBS, 0.000781 µM
[13] = RPMI 5 mM glucose + 10% FBS, 0.00234 µM
[14] = RPMI 5 mM glucose + 10% FBS, 0.00702 µM
[15] = RPMI 5 mM glucose + 10% FBS, 0.0211 µM
[16] = RPMI 5 mM glucose + 10% FBS, 0.0632 µM
[17] = RPMI 5 mM glucose + 10% FBS, 0.19 µM
[18] = RPMI 5 mM glucose + 10% FBS, 0.569 µM
[19] = RPMI 5 mM glucose + 10% FBS, 1.71 µM
[20] = RPMI 5 mM glucose + 10% FBS, 5.12 µM
[21] = RPMI 5 mM glucose + 10% FBS, 15.4 µM
[22] = RPMI 5 mM glucose + 10% FBS, 46.1 µM
[23] = RPMI 5 mM glucose + 10% dialyzed FBS, 0.000781 µM
[24] = RPMI 5 mM glucose + 10% dialyzed FBS, 0.00234 µM
[25] = RPMI 5 mM glucose + 10% dialyzed FBS, 0.00702 µM
[26] = RPMI 5 mM glucose + 10% dialyzed FBS, 0.0211 µM
[27] = RPMI 5 mM glucose + 10% dialyzed FBS, 0.0632 µM
[28] = RPMI 5 mM glucose + 10% dialyzed FBS, 0.19 µM
[29] = RPMI 5 mM glucose + 10% dialyzed FBS, 0.569 µM
[30] = RPMI 5 mM glucose + 10% dialyzed FBS, 1.71 µM
[31] = RPMI 5 mM glucose + 10% dialyzed FBS, 5.12 µM
[32] = RPMI 5 mM glucose + 10% dialyzed FBS, 15.4 µM
[33] = RPMI 5 mM glucose + 10% dialyzed FBS, 46.1 µM

Row | Compound | cell viability [1] [%] | cell viability [2] [%] | cell viability [3] [%] | cell viability [4] [%] | cell viability [5] [%] | cell viability [6] [%] | cell viability [7] [%] | cell viability [8] [%] | cell viability [9] [%] | cell viability [10] [%] | cell viability [11] [%] | cell viability [12] [%] | cell viability [13] [%] | cell viability [14] [%] | cell viability [15] [%] | cell viability [16] [%] | cell viability [17] [%] | cell viability [18] [%] | cell viability [19] [%] | cell viability [20] [%] | cell viability [21] [%] | cell viability [22] [%] | cell viability [23] [%] | cell viability [24] [%] | cell viability [25] [%] | cell viability [26] [%] | cell viability [27] [%] | cell viability [28] [%] | cell viability [29] [%] | cell viability [30] [%] | cell viability [31] [%] | cell viability [32] [%] | cell viability [33] [%]
1 | O=C(CCCCCCC(=O)Nc1cccnc1)NO | 93 | 99.9 | 96.9 | 96.9 | 105 | 109 | 99.5 | 90.8 | 82.1 | 12.2 | 4.36 | 82.5 | 95.6 | 93.7 | 93.4 | 97.5 | 95.4 | 99.6 | 85.7 | 76.1 | 9.59 | 3.79 | 86.9 | 92.8 | 90.7 | 91.9 | 94.7 | 95.1 | 94.3 | 85.2 | 73.9 | 10 | 3.83
2 | CCN1\C=C(\C(O)=O)C(=O)C2=C1N=C(N3CCNCC3)C(=C2)F | 75.4 | 89.2 | 85.8 | 94.9 | 91.8 | 93.7 | 94.1 | 91.9 | 91.4 | 92.2 | 84.1 | 72.1 | 82.1 | 76 | 86.3 | 80.7 | 81.6 | 79.4 | 78.4 | 85.7 | 83.6 | 81 | 74.1 | 82.6 | 77.7 | 90.3 | 84.1 | 76.9 | 88.7 | 83.3 | 77.2 | 83.4 | 95.1
3 | CCN(CCO)CCCOc1ccc2c(Nc3cc(CC(=O)Nc4cccc(F)c4)[nH]n3)ncnc2c1 | 99.6 | 99.8 | 107 | 109 | 104 | 43.9 | 11.6 | 10.8 | 9.25 | 9.18 | 10.6 | 102 | 110 | 115 | 117 | 108 | 45.4 | 16.7 | 14.1 | 11 | 10.5 | 16.3 | 102 | 112 | 111 | 111 | 114 | 68.6 | 20.7 | 21 | 21.1 | 18.5 | 26.9
4 | CCN1C[C@H](C)[N]2C(=C(O)C3=C2\C(=N/N(CC4=CC=C(F)C(=C4)Cl)C3=O)C(=O)NC)C1=O | 111 | 116 | 126 | 102 | 124 | 121 | 111 | 97.4 | 103 | 107 | 112 | 103 | 115 | 115 | 110 | 113 | 114 | 111 | 101 | 101 | 105 | 94.7 | 102 | 105 | 108 | 116 | 105 | 101 | 117 | 108 | 89.7 | 92.4 | 92.5
